From ChEMBL document CHEMBL6103575, “Design, synthesis and evaluation of (E)-1-(4-(2-(1H-pyrazol-5-yl)vinyl)phenyl) derivatives as next generation selective RET inhibitors overcoming RET solvent front mutations (G810C/R)” (Eur J Med Chem, 2025)

Columns and labels:
[1] = test system: BaF3; assay: Antiproliferative activity against mouse BaF3 cells harbouring CCDC6-RET G810R mutant assessed as inhibition of cell proliferation incubated for 72 hrs by CCK-8 assay; format: functional, cell-based; conditions: BaF3, 72 h
[2] = test system: BaF3; assay: Antiproliferative activity against mouse BaF3 cells harbouring CCDC6-RET V804M mutant assessed as inhibition of cell proliferation incubated for 72 hrs by CCK-8 assay; format: functional, cell-based; conditions: BaF3, 72 h
[3] = test system: BaF3; assay: Antiproliferative activity against mouse BaF3 cells harbouring CCDC6-RET assessed as inhibition of cell proliferation incubated for 72 hrs by CCK-8 assay; format: functional, cell-based; conditions: BaF3, 72 h
[4] = test system: BaF3; assay: Antiproliferative activity against mouse BaF3 cells harbouring CCDC6-RET G810C mutant assessed as inhibition of cell proliferation incubated for 72 hrs by CCK-8 assay; format: functional, cell-based; conditions: BaF3, 72 h
[5] = test system: BaF3; assay: Antiproliferative activity against mouse BaF3 cells harbouring CCDC6-RET
[6] = test system: BaF3; assay: Antiproliferative activity against mouse BaF3 cells harbouring CCDC6-RET V804M mutant; format: functional, cell-based
[7] = test system: BaF3; assay: Antiproliferative activity against mouse BaF3 cells harbouring CCDC6-RET G810R mutant; format: functional, cell-based
[8] = test system: BaF3; assay: Antiproliferative activity against mouse BaF3 cells harbouring CCDC6-RET G810C mutant; format: functional, cell-based
[9] = test system: BaF3; assay: Antiproliferative activity against mouse BaF3 cells harbouring KIF5B-RET G810C mutant assessed as inhibition of cell proliferation; format: functional, cell-based
[10] = test system: BaF3; assay: Antiproliferative activity against mouse BaF3 cells harbouring KIF5B-RET G810R mutant assessed as inhibition of cell proliferation; format: functional, cell-based
[11] = test system: BaF3; assay: Antiproliferative activity against mouse BaF3 cells harbouring KIF5B-RET assessed as inhibition of cell proliferation; format: functional, cell-based
[12] = test system: BaF3; assay: Antiproliferative activity against mouse BaF3 cells harbouring CCDC6-RET V804M mutant assessed as inhibition of cell proliferation; format: functional, cell-based
[13] = target: Kinesin-1 heavy chain/ Tyrosine-protein kinase receptor RET (Homo sapiens, UniProt P07949); assay: Inhibition of wild type KIF5B-RET (unknown origin); format: protein assay
Sequence of Kinesin-1 heavy chain/ Tyrosine-protein kinase receptor RET (P07949 whole entry): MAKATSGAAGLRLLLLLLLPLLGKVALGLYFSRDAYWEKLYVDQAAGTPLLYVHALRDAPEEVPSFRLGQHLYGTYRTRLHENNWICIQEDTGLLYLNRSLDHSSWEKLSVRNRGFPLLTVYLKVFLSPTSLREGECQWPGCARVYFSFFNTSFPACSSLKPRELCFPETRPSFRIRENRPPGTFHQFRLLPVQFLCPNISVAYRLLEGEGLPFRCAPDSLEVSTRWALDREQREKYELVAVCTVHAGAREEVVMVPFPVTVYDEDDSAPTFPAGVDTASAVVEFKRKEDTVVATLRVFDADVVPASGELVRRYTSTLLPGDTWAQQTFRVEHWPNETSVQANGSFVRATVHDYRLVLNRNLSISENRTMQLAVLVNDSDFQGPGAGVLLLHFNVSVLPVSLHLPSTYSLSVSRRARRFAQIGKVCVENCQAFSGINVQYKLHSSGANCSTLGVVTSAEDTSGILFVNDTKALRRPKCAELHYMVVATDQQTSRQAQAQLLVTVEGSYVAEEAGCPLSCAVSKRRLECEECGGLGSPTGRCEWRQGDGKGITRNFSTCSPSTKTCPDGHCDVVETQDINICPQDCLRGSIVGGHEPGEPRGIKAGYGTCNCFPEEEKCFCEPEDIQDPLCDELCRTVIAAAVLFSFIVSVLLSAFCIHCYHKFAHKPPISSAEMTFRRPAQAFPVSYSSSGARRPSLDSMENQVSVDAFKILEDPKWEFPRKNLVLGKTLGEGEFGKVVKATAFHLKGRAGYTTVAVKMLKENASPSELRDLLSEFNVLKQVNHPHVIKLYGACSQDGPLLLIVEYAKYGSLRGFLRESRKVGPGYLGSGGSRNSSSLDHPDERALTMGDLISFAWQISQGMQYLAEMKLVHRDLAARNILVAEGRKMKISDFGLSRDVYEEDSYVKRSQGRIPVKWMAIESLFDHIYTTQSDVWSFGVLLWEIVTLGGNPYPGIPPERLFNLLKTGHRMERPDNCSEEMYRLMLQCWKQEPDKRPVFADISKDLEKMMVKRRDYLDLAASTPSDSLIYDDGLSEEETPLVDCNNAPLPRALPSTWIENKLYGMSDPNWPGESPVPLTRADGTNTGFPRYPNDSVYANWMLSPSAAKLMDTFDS
Sequence of Kinesin-1 heavy chain/ Tyrosine-protein kinase receptor RET (P33176 whole entry, further chain): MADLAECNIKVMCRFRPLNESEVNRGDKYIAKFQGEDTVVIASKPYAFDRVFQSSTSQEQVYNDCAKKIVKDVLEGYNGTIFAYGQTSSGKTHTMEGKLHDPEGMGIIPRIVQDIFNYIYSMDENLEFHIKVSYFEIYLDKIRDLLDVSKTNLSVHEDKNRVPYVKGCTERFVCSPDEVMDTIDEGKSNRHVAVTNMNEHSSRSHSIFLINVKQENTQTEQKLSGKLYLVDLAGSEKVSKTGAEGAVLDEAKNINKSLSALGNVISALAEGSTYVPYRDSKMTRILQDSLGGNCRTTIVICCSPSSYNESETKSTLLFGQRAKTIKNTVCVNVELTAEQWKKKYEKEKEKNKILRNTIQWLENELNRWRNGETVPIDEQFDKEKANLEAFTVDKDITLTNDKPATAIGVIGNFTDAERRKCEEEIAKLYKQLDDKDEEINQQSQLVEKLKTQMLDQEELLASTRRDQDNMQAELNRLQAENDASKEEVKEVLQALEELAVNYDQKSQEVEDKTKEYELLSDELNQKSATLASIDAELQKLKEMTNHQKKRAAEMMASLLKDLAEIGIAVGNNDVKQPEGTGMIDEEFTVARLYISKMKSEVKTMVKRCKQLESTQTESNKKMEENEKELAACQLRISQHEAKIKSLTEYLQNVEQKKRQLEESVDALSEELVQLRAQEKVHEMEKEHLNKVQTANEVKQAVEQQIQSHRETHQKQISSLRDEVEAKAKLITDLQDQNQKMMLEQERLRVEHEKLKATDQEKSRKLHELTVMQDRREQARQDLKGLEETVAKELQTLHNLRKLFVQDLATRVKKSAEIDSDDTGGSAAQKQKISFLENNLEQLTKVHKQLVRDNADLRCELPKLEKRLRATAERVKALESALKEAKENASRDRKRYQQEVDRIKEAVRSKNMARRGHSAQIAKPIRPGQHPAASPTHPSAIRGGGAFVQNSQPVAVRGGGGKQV

[14] = target: Proto-oncogene tyrosine-protein kinase receptor Ret (Homo sapiens, UniProt P07949, G810R); assay: Inhibition of RET G810R mutant (unknown origin)
Sequence of Proto-oncogene tyrosine-protein kinase receptor Ret (Homo sapiens, UniProt P07949, G810R) (P07949 29-1114 G810R limits assumed): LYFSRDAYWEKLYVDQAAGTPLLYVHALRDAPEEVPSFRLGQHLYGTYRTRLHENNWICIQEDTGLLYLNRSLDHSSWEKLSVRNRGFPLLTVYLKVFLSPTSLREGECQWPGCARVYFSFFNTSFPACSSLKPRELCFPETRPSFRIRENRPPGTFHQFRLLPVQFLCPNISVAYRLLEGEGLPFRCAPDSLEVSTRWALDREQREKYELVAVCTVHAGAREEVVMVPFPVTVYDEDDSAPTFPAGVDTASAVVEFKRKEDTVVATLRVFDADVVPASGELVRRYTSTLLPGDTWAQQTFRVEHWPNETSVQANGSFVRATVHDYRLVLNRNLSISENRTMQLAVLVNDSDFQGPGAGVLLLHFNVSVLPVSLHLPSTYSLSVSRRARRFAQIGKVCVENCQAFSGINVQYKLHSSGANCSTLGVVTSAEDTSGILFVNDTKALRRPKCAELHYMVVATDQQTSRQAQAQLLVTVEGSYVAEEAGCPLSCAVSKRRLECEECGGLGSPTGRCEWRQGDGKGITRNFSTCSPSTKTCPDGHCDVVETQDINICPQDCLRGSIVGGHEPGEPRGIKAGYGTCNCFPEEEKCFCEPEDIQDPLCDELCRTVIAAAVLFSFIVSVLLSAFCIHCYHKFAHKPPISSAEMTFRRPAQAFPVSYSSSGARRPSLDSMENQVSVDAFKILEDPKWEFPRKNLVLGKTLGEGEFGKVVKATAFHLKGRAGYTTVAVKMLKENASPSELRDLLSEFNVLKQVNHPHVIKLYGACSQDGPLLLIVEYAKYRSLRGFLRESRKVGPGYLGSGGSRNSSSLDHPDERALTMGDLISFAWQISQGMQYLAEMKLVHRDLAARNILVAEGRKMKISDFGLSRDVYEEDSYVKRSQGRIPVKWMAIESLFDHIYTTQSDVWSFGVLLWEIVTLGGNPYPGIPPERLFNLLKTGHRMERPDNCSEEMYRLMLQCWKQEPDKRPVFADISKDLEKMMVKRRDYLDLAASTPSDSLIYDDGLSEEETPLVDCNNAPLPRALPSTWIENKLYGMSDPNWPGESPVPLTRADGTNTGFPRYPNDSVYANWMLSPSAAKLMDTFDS

[15] = target: Proto-oncogene tyrosine-protein kinase receptor Ret (Homo sapiens, UniProt P07949, V804M); assay: Inhibition of RET V804M mutant (unknown origin)
Sequence of Proto-oncogene tyrosine-protein kinase receptor Ret (Homo sapiens, UniProt P07949, V804M) (P07949 29-1114 V804M limits assumed): as the sequence (P07949 29-1114 G810R limits assumed) above, with V776M, R782G counted along it

Row | IC50 [1] [µM] | IC50 [2] [µM] | IC50 [3] [µM] | IC50 [4] [µM] | Structure (SMILES) | also measured
1 | 0.658 | 0.231 | 0.435 | 0.363 | COc1ccc(-c2c[nH]nc2-c2ccc(NC(=O)Nc3cc(C(C)(C)C(F)(F)F)on3)cc2)cn1 | 
2 | 1.21 | 3.07 | 0.222 | 0.737 | CNC(=O)c1cncc(-c2cn[nH]c2/C=C/c2ccc(NC(=O)Nc3cc(C(C)(C)C(F)(F)F)on3)cc2)c1 | 
3 | 0.179 | 0.536 | 0.127 | 0.173 | COc1cncc(-c2cn[nH]c2/C=C/c2ccc(NC(=O)Nc3cc(C(C)(C)C(F)(F)F)on3)cc2F)c1 | 
4 | 0.32 | 0.0049 | 0.0039 | 0.104 | CO[C@]1(C(=O)N[C@@H](C)c2ccc(-n3cc(F)cn3)nc2)CC[C@H](c2nc(C)cc(Nc3cc(C)[nH]n3)n2)CC1 [PRALSETINIB] | IC50 [5]: 0.005 µM; IC50 [6]: 0.0041 µM; IC50 [7]: 0.358 µM; IC50 [8]: 0.114 µM
5 | 1.13 | 0.719 | 0.126 | 0.421 | COc1cncc(-c2cn(C)nc2/C=C/c2ccc(NC(=O)Nc3cc(C(C)(C)C(F)(F)F)on3)cc2)c1 | 
6 | 0.812 | 1.79 | 0.406 | 0.694 | COc1cncc(-c2c[nH]nc2/C=C\c2ccc(NC(=O)Nc3cc(C(C)(C)C(F)(F)F)on3)cc2)c1 | 
7 | 2.2 | 1.81 | 1.06 | 0.777 | COc1cncc(-c2cn[nH]c2/C=C/c2cccc(NC(=O)Nc3cc(C(C)(C)C(F)(F)F)on3)c2)c1 | 
8 | 0.208 | 1.22 | 0.0854 | 0.121 | COc1cc(-c2cn[nH]c2/C=C/c2ccc(NC(=O)Nc3cc(C(C)(C)C(F)(F)F)on3)cc2)ccn1 | 
9 | 0.278 | 0.844 | 0.175 | 0.205 | CC(C)(c1cc(NC(=O)Nc2ccc(/C=C/c3[nH]ncc3-c3cncc(C#N)c3)cc2)no1)C(F)(F)F | 
10 | 0.0294 | 0.803 | 0.0131 | 0.0264 | COc1cncc(-c2cn[nH]c2/C=C/c2ccc(NC(=O)Nc3cc(C(C)(C)C(F)(F)F)on3)c(C)c2)c1 | 
11 | 0.428 | 1.02 | 0.0894 | 0.377 | COC(=O)c1cncc(-c2cn[nH]c2/C=C/c2ccc(NC(=O)Nc3cc(C(C)(C)C(F)(F)F)on3)cc2)c1 | 
12 | 0.246 | 0.421 | 0.108 | 0.309 | COc1cncc(-c2cn[nH]c2/C=C/c2ccc(NC(=O)Nc3cc(C(C)(C)C(F)(F)F)on3)cc2Cl)c1 | 
13 |  |  |  |  | C[C@H]1CNC(=O)c2cnn3cc4c(nc23)N(Cc2cc(F)cnc2O1)[C@@H]1CCC[C@@H]1O4 [ENBEZOTINIB] | IC50 [9]: 0.001 µM; IC50 [10]: 0.001 µM; IC50 [11]: 0.001 µM
14 |  |  |  |  | COc1ccc(CN2[C@@H]3C[C@H]2CN(c2ccc(-c4cc(OCC(C)(C)O)cn5ncc(C#N)c45)cn2)C3)cn1 | IC50 [12]: 0.026 µM
15 | 0.022 | 0.564 | 0.0123 | 0.0455 | COc1cncc(-c2cn[nH]c2/C=C/c2ccc(NC(=O)Nc3cc(C(C)(C)C(F)(F)F)on3)c(F)c2)c1 | 
16 | 0.443 | 1.05 | 0.133 | 0.7 | COc1cncc(-c2cn[nH]c2/C=C/c2ccc(NC(=O)Nc3cc(C(C)(C)C(F)(F)F)on3)cc2OC)c1 | 
17 | 0.352 | 0.754 | 0.21 | 0.404 | COc1cncc(-c2cn[nH]c2/C=C/c2ccc(NC(=O)Nc3cc(C(C)(C)C(F)(F)F)on3)c(OC)c2)c1 | 
18 | 0.301 | 2.02 | 0.0985 | 0.117 | COc1ccc(-c2cn[nH]c2/C=C/c2ccc(NC(=O)Nc3cc(C(C)(C)C(F)(F)F)on3)cc2)cn1 | 
19 | 0.471 | 0.632 | 0.271 | 0.499 | COc1cncc(-c2cn[nH]c2/C=C/c2ccc(NC(=O)Nc3cc(C(C)(C)C(F)(F)F)on3)cc2C)c1 | 
20 |  |  |  |  | CN1CCN(Cc2ccc(NC(=O)c3cncc(C#Cc4cnc(N)c5ncccc45)c3)cc2C(F)(F)F)CC1 | IC50 [13]: 0.00389 µM; IC50 [14]: 0.0288 µM; IC50 [15]: 0.0288 µM
21 | 0.133 | 0.554 | 0.046 | 0.046 | COc1cncc(-c2cn[nH]c2/C=C/c2ccc(NC(=O)Nc3cc(C(C)(C)C(F)(F)F)on3)cc2)c1 | 
22 | 0.836 | 1.52 | 0.223 | 0.641 | COc1cncc(-c2cnn(C)c2/C=C/c2ccc(NC(=O)Nc3cc(C(C)(C)C(F)(F)F)on3)cc2)c1 | 
23 | 1.03 | 3.61 | 0.79 | 0.718 | COc1ccc(-c2cn[nH]c2CCc2ccc(NC(=O)Nc3cc(C(C)(C)C(F)(F)F)on3)cc2)cn1 | 
24 | 0.143 | 0.594 | 0.147 | 0.042 | CC(C)(c1cc(NC(=O)Nc2ccc(/C=C/c3[nH]ncc3-c3cncc(F)c3)cc2)no1)C(F)(F)F | 
